In publication PMC10816808, “Enhancement of the Antitumor and Antimetastatic Effect of Topotecan and Normalization of Blood Counts in Mice with Lewis Carcinoma by Tdp1 Inhibitors—New Usnic Acid Derivatives” (International Journal of Molecular Sciences, 2024):
Values joined by “and” are separate entries in the source; they are usually repeats but may differ in a detail not shown here. Equal entries are not always repeated.

How the values were obtained:
Tdp1 = target: T1, Tdp1 (Homo sapiens, UniProt Q9NUW8); assay: Tdp1 inhibition, fluorescent oligonucleotide biosensor; format: biochemical; details: purified Tdp1 1.5 nM, 50 nM biosensor; read-out: Concentration of half-maximal inhibition of Tdp1 (IC50)
T1 construct: Purified Tdp1 (1.5 nM) triggered the reaction
T1 sequence (Q9NUW8 whole entry): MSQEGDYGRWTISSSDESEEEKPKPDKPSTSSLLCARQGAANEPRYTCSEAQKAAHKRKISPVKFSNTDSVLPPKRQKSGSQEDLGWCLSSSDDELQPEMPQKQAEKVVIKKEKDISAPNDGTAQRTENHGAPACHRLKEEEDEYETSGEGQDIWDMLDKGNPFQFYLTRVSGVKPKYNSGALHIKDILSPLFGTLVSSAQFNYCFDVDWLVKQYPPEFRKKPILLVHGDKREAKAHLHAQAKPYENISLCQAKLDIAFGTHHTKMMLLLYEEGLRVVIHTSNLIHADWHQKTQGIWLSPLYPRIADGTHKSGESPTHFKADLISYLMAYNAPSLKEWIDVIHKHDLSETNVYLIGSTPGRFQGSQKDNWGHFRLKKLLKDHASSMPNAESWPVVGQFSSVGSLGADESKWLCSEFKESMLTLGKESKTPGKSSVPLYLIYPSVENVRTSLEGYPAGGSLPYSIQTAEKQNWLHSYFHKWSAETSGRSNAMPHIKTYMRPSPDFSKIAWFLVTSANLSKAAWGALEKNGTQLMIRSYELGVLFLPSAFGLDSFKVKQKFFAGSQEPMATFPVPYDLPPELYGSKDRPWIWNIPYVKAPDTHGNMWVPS
From the text: The inhibitory properties of the compound on the purified Tdp1 was studied using a technique developed previously by our team. A 16-mer single-stranded oligonucleotide carrying a fluorophore at the 5′-end and a quencher at the 3′-end was used as a biosensor. When within the Förster radius, the quencher suppressed the fluorescence of the fluorophore. The quencher was removed by Tdp1, resulting in fluorescence emission. Usnic acid derivatives with a bromophenol residue in the enamine fragment (compounds 6 and 8) inhibit the enzyme with half-maximal inhibition concentrations (IC50) an order of magnitude worse than derivatives with a di-tert-butyl fragment (compounds 5 and 7).
An oligonucleotide 5′-[FAM] AAC GTC AGGGTC TTC C [BHQ1]-3′ synthesized in the laboratory Laboratory of Nucleic Acids Chemistry at the Institute of Chemical Biology and Fundamental Medicine (Novosibirsk, Russia) was used as a biosensor. Removal of the quencher (BHQ1) due to enzyme activity leads to increased fluorescence of FAM. The reaction was carried out at different concentrations of inhibitors (1.5% of DMSO, Sigma, St. Louis, MO, USA, in the control samples). The reaction mixtures contained Tdp1 buffer (50 mM Tris-HCl pH 8.0, 50 mM NaCl, and 7 mM β-mercaptoethanol), 50 nM biosensor, and an inhibitor being tested. Purified Tdp1 (1.5 nM) triggered the reaction.
The fluorescence was measured using POLARstar OPTIMA fluorimeter (BMG LABTECH, GmbH, Ortenberg, Germany). The values of IC50 were determined in minimum three independent experiments and were calculated using embedded software MARS Data Analysis 2.0 (BMG LABTECH, GmbH, Ortenberg, Germany).

[1] = MTT cytotoxicity test, MRC-5; format: cell-based; details: human, MRC-5 cells (lung fibroblasts, nontumor), read-out: semitoxic concentration (CC50), MRC-5
From the text: (§1) Compounds 6 and 8 with a bromophenol residue in the enamine fragment have a weak or moderate effect on cell survival (Table 1 and Supplementary Figure S1).
(§2) Cytotoxicity of the compounds against human tumor cell lines: HeLa (cervical cancer), HCT-116 (colorectal cancer), A-549 (lung cancer), MCF-7 (breast cancer), T98G (glioblastoma), HepG2 (hepatocarcinoma), and nontumor cell lines: MRC-5 (lung fibroblasts) and HEK293A (human embryonic kidney) was examined using the MTT test. HCT-116 and MRC-5 cell lines were provided by the Cell Culture Bank of the State Research Center for Virology and Biotechnology Vector, Novosibirsk, Russia. A-549, MCF-7, and T98G cell lines were obtained from the Russian Cell Culture Collection (RCCC) Institute of Cytology RAS (St. Petersburg, Russia). HEK293A cells were purchased (ThermoFisher Scientific, Waltham, MA, USA).
(§3) The cell culture medium DMEM medium (Invitrogen, Carlsbad, CA, USA) contained 10% fetal bovine serum (FBS) (Invitrogen), penicillin (100 units/mL), and streptomycin (100 µg/mL). Cells were seeded into 96-well plates at 5000 cells per well and grown at 37 °C and 5% CO2 in a humid atmosphere. At 30–50% confluence, the tested compounds were added to the medium to a final DMSO content of 1%. Control wells contained 1% DMSO. To determine the cytotoxicity of Tdp1 inhibitors, the cells were treated with compounds with concentrations ranging from 1 to 100 µM for 72 h at 37 °C […]. All measurements were repeated a minimum of twice.

[2] = system: Lewis lung carcinoma (LLC); assay: Antitumor and antimetastatic effect in the Lewis lung carcinoma model; format: in vivo, mice; details: for average number of metastases in the lungs / average primary node (tumor) weight / tumor growth inhibition (TGI): C57BL mice with LLC; for average number of metastases in the lungs / average primary node (tumor) weight: day 18, mean ± SD; for average primary node (tumor) weight: single dose; for tumor growth inhibition (TGI): vs intact control; for number of metastases in the lungs / tumor weight: individual animals; for effect on the number of metastases in the lungs (in words): monotherapy, Tpc 1 mg/kg i/p, 7 50 mg/kg i/p or i/g
From the text: Compound 7 is a hybrid of two compounds: leaders in their subclasses of usnic acid derivatives 1 and 4 [28, 32]. We studied the ability of compound 7 to sensitize the effect of topotecan on murine Lewis lung carcinoma (LLC) (Tpc + 7, Figure 3). The LLC cell line was maintained as a transplantable strain in mice and was provided by the cell depository of the Institute of Cytology and Genetics SB RAS (Novosibirsk, Russia). […] Subcutaneous transplantation leads to the development of a primary node at the injection site and the appearance of metastases in the lungs on days 17–21 [47]. The size of the primary tumor was determined as the difference in the weight of the healthy limb and the limb with the tumor after the mice were removed from the experiment on 18th day after LLC transplantation.
Female C57BL mice with a body weight of ~19–21 g were used in the study. Mice were housed in plastic cages with a wood chip bedding and had free access to water and food. Lewis lung carcinoma (LLC) and Krebs-2 ascites were used as experimental tumor models. The transplantable tumors were obtained from the cell bank of the Institute of Cytology and Genetics (Novosibirsk, Russia). The LLC mouse model is the most common model of lung cancer; LLC cells remain tumorigenic and capable of metastasis into the lung in C57BL mice. Tumor tissue was minced and resuspended in 0.9% NaCl prior to grafting. LLC was injected into the right thigh of mice at 800,000 cells in 0.2 mL per mouse.
Previously, we divided the animals into 6 groups of 6–7 individuals in each, the treatment was carried out once 7 days after tumor transplantation: • - Group 1—Intact control—mice of this group were inoculated with a tumor, receiving 0.2 mL of saline intraperitoneally; • - Group 2—DMSO-Tween-80—mice were injected once intragastrically with a probe 200 μL of a solution containing saline, Tween-80 (10%) and DMSO (15%), a solvent for 7; • - Group 3—Tpc (aqueous solution)—mice were injected once intraperitoneally with 200 µL of Tpc at a single dose of 1 mg/kg; • - Group 4—Tpc + 7 i/g—mice received Tpc once as described for group 3 and 7 in the form of 200 µL of suspension (Tween-80 (10%) and DMSO (15%) in saline) once intragastrically at a dose of 50 mg/kg; • - Group 5—7 i/g—mice were injected with 7 as described for group 4; • - Group 6—Tpc + 7 i/p—mice were injected with topotecan once as described for groups 3 and 7 in the form of 200 µL of suspension (Tween-80 (10%) and DMSO (15%) in saline) once intraperitoneally at a dose of 50 mg/kg; • - Group 7—7 i/p—mice were injected with 7 as for group 6.
The substances were administered as a single injection in a volume of 0.2 mL on day 13 after tumor grafting. The anticancer effect was evaluated by the primary tumor growth and the number of metastases in the lungs of all mice. Metastases were counted after fixation in 10% formalin under an MBI-3 microscope (LOMO, Saint Petersburg, Soviet Union) at a threefold magnification.

[3] = MTT cytotoxicity test, T98G; format: cell-based; details: human, T98G cells (glioblastoma), read-out: semitoxic concentration (CC50), T98G
From the text: as §1, §2, §3

[4] = Tpc 1 mg/kg i/p and/or 7 50 mg/kg i/p
[5] = 7 50 mg/kg i/g, alone or with Tpc 1 mg/kg i/p
[6] = mice with LLC, 7 50 mg/kg i/g, alone or with Tpc 1 mg/kg i/p
[7] = mice with LLC, Tpc 1 mg/kg i/p and/or 7 50 mg/kg i/p

Structure (SMILES)	IC50 (Tdp1)	CC50 at 72 h [1]	average number of metastases in the lungs [2, 4]	average primary node (tumor) weight [2, 5]	average primary node (tumor) weight [2, 4]	tumor growth inhibition (TGI) [2, 5]	tumor growth inhibition (TGI) [2, 4]	number of metastases in the lungs [2, 6]	tumor weight [2, 6]	number of metastases in the lungs [2, 7]	tumor weight [2, 7]	effect on the growth of the primary node (in words) ([2]; mice with LLC, mono mode)	effect on the number of metastases in the lungs (in words) ([2]; mice with LLC)	CC50 at 72 h [3]
C/C(NCCCc1cc(C(C)(C)C)c(O)c(C(C)(C)C)c1)=C1\C(=O)C=C2Oc3c(-c4csc(N/N=C/c5ccc(Br)cc5)n4)c(O)c(C)c(O)c3[C@@]2(C)C1=O [Compound 7, (4E)-10-{2-[(E)-2-[(4-bromophenyl)methylidene]hydrazin-1-yl]-1,3-thiazole-4-yl}-4-(1-{[3-(3,5-di-tret-butyl-4-hydroxyhenyl)propyl]amino}ethylidene)-11,13-dihydroxy-2,12-dimethyl-8-oxatricyclo [7.4.0.02,7]trideca-1(13),6,9,11-tetraen-3,5-dione]	0.12 ± 0.01 µM	> 100 µM	15,5±5,5	4,2±0,9 g	3,9±0,7 g	4.5%	11.4%	18 and 4 and 21 and 0	2.9 g and 4.5 g and 4.8 g and 3.7 g and 5.3 g	10 and 21	3.4 g and 4.4 g	no effect	no effect	> 100 µM
CC[C@@]1(O)C(=O)OCc2c1cc1n(c2=O)Cc2cc3c(CN(C)C)c(O)ccc3nc2-1 [Tpc, topotecan]	–	–	11,8±6,1	–	2,8±0,5 g	–	36.4%	–	–	24 and 9 and 5	2.9 g and 3 g and 3.4 g and 2.7 g	–	virtually no effect	–
